Columns and labels:
[1] = xn = mol fraction of the nth substance listed; settings: Liquid, Vibrating tube method
[2] = Liquid; for mass density: Vibrating tube method; for vapor or sublimation pressure: Ebulliometric method (Recirculating still)
[3] = refractive index (Na D-line) (dimensionless); settings: 298.15 K; 101.33 kPa; Liquid; Standard Abbe refractometry

CCOC(=O)CC [ethyl propanoate] + CCCCC
mass density [kg/m3], [1]
Settings | 288.15 K | 298.15 K
x1 = 0.0503 | 643.39 | –
x1 = 0.0545 | – | 634.55
x1 = 0.1013 | – | 646.47
x1 = 0.1017 | 656.5 | –
x1 = 0.1511 | 669.25 | –
x1 = 0.1538 | – | 659.85
x1 = 0.2025 | 682.62 | –
x1 = 0.2051 | – | 673.1
x1 = 0.254 | – | 685.81
x1 = 0.2551 | 696.41 | –
x1 = 0.3012 | 708.53 | –
x1 = 0.3038 | – | 698.8
x1 = 0.3525 | 722.09 | –
x1 = 0.3594 | – | 713.37
x1 = 0.3947 | 733.28 | –
x1 = 0.4062 | – | 725.7
x1 = 0.4496 | 747.92 | –
x1 = 0.4575 | – | 739.37
x1 = 0.5009 | 761.7 | –
x1 = 0.5083 | – | 752.81
x1 = 0.5519 | 775.33 | –
x1 = 0.56 | – | 766.57
x1 = 0.5987 | 787.9 | –
x1 = 0.606 | – | 778.84
x1 = 0.6449 | 800.24 | –
x1 = 0.6559 | – | 792.17
x1 = 0.6974 | 814.34 | –
x1 = 0.7061 | – | 805.64
x1 = 0.7488 | 828.17 | –
x1 = 0.7498 | – | 817.26
x1 = 0.7974 | 841.13 | –
x1 = 0.8007 | – | 830.93
x1 = 0.8477 | 854.65 | –
x1 = 0.8535 | – | 844.98
x1 = 0.8951 | 867.4 | –
x1 = 0.9054 | – | 858.85
x1 = 0.9482 | 881.6 | –
x1 = 0.9511 | – | 871.06
x1 = 1 | 895.58 | 884.15

CCOC(=O)CC [ethyl propanoate]
[2]
Settings | mass density [kg/m3] | vapor or sublimation pressure [kPa]
288.15 K | 895.58 | –
298.15 K | 884.15 | –
308.15 K | 872.62 | –
318.15 K | 861.08 | –
328.15 K | 849.41 | –
348.07 K | – | 45
349.55 K | – | 47.5
350.96 K | – | 50
352.34 K | – | 52.5
353.66 K | – | 55
354.91 K | – | 57.5
356.15 K | – | 60
357.32 K | – | 62.5
358.48 K | – | 65
359.57 K | – | 67.5
360.66 K | – | 70
361.72 K | – | 72.5
362.74 K | – | 75
363.71 K | – | 77.5
364.69 K | – | 80
365.63 K | – | 82.5
366.55 K | – | 85
367.47 K | – | 87.5
368.35 K | – | 90
369.21 K | – | 92.5
370.06 K | – | 95
370.87 K | – | 97.5
371.73 K | – | 100
372.09 K | – | 101.32
372.18 K | – | 101.32
373.31 K | – | 105
374.84 K | – | 110
376.29 K | – | 115
377.7 K | – | 120
379.08 K | – | 125
380.4 K | – | 130
381.67 K | – | 135
382.91 K | – | 140
384.15 K | – | 145
385.32 K | – | 150
386.47 K | – | 155
387.6 K | – | 160
388.69 K | – | 165
389.77 K | – | 170
390.81 K | – | 175
391.83 K | – | 180
392.85 K | – | 185
393.81 K | – | 190
394.77 K | – | 195
395.72 K | – | 200
396.64 K | – | 205
397.55 K | – | 210
398.43 K | – | 215
399.31 K | – | 220
400.17 K | – | 225
401 K | – | 230
401.83 K | – | 235
402.65 K | – | 240
403.46 K | – | 245
404.25 K | – | 250
405.04 K | – | 255
405.79 K | – | 260
406.56 K | – | 265
407.3 K | – | 270
408.03 K | – | 275
408.75 K | – | 280

Settings | refractive index
[3] | 1.3811

CCCCCCC [heptane] + CCOC(=O)CC
[1], x2 = 0
Settings | mass density [kg/m3]
288.15 K | 688.16
298.15 K | 679.62
308.15 K | 670.96
318.15 K | 662.33
328.15 K | 653.61

CCC(=O)OC [methyl propanoate] + CCCCC
mass density [kg/m3], [1], 101 kPa
Settings | 288.15 K | 298.15 K
x1 = 0.0597 | 644.23 | –
x1 = 0.0641 | – | 635.16
x1 = 0.0925 | 651.9 | –
x1 = 0.0938 | – | 642.1
x1 = 0.1482 | – | 654.98
x1 = 0.1507 | 665.97 | –
x1 = 0.204 | 679.21 | –
x1 = 0.2099 | – | 670.19
x1 = 0.2574 | – | 682.36
x1 = 0.2614 | 693.95 | –
x1 = 0.3127 | 707.38 | –
x1 = 0.3135 | – | 696.99
x1 = 0.3382 | 714.27 | –
x1 = 0.3389 | – | 703.72
x1 = 0.3927 | 729.16 | –
x1 = 0.3942 | – | 718.75
x1 = 0.442 | 743.09 | –
x1 = 0.4459 | – | 733.12
x1 = 0.4985 | 759.2 | –
x1 = 0.4999 | – | 748.56
x1 = 0.5461 | 773.25 | –
x1 = 0.5478 | – | 762.56
x1 = 0.5921 | – | 775.9
x1 = 0.5926 | 787.12 | –
x1 = 0.6407 | 801.96 | –
x1 = 0.6434 | – | 791.33
x1 = 0.6898 | – | 805.83
x1 = 0.69 | 817.19 | –
x1 = 0.7559 | – | 826.88
x1 = 0.7581 | 839.01 | –
x1 = 0.8051 | – | 842.74
x1 = 0.8072 | 855.11 | –
x1 = 0.8487 | 868.74 | –
x1 = 0.8499 | – | 857.54
x1 = 0.8891 | 882.39 | –
x1 = 0.8915 | – | 871.51
x1 = 0.9538 | 904.73 | –
x1 = 0.9601 | – | 894.98
x1 = 1 | 921.21 | 909.1

— the NIST ThermoML archive (doi:10.1021/je4009415)
